Assay [1] has as its system OVA exposed mice. Briefly: Peribronchial inflammation score by histology, OVA mouse model. The assay is classed as in vivo. Conditions: 1, 7.5 and 50 mM, compared to placebo; FIG. 2. As to the method: (§1) In order to study modulation of airway inflammation, males BALB/c mice of 6 to 8 weeks old were sensitized by intraperitoneal injection of 10 μg ovalbumin (OVA) (Sigma Aldrich, Schnelldorf, Germany) emulsified in aluminum hydroxyde (AlumInject; Perbio, Erembodegem, Belgium) on days 1 and 8. Mice were subsequently exposed to allergens by daily inhalation of an aerosol of OVA 1%, for 30 minutes, generated by ultrasonic nebulizer (Devilbiss 2000), from day 21 to 27. […] Mice were sacrificed performed on day 28 as previously reported by Cataldo and al in Am. J. Pathol 2002; 161(2):491-498.
After BAL, the thorax was opened and the left main bronchus was clamped. The left lung was excised and frozen immediately at −80° C. for protein and mRNA extraction. The right lung was infused with 4 ml paraformaldehyde 4%, embedded in paraffin and used for histology. Sections of 5 μm thickness were cut off from paraffin and were stained with haematoxylin-eosin. The extent of peribronchial inflammation was estimated by a score calculated by quantification of peribronchial inflammatory cells, as previously described by Cataldo D D, Tournoy K G, Vermaelen K et al. in Am J Pathol 2002; 161(2):491-498. A value of 0 was adjudged when no inflammation was detectable, a value of 1 when there was occasionally inflammatory cells, a value of 2 when most bronchi were surrounded by a thin layer (1 to 5 cells) of inflammatory cells and a value of 3 when most bronchi were surrounded by a thick layer (>5 cells) of inflammatory cells. Since 5-7 randomly selected tissue sections per mouse were scored, inflammation scores are expressed as a mean value and can be compared between groups. After Congo Red staining, the eosinophilic infiltration in the airway walls was quantified by manual count and reported to the perimeter of epithelial basement membrane defining an eosinophilic inflammatory score.

In assay [2] the test system is OVA exposed mice. Briefly: Bronchial responsiveness to methacholine (Penh, barometric plethysmograph). The assay is classed as in vivo, mouse. As to the method: as §1
Twenty-four hours after the last allergen exposure, the bronchial hyper responsiveness was determined by measuring the Penh (Enhanced Pause) using a barometric plethysmograph (Emka technologies, Paris) as proposed by Hamelmann, E., et al., Am. J. Respir. Crit. Care Med. 156 (1997) 766-775). The Penh was measured at baseline and […] after the inhalation of increasing doses (25, 50, 75 and 100 mM) of methacholine (Mch).

For another assay, the system named is Eotaxin. Briefly: Eotaxin ELISA in lung protein extracts, OVA mouse model. The assay is classed as in vivo. To be noted: all doses tested, compared to placebo; FIG. 7a. The procedure:
In order to study modulation of airway inflammation, males BALB/c mice of 6 to 8 weeks old were sensitized by intraperitoneal injection of 10 μg ovalbumin (OVA) (Sigma Aldrich, Schnelldorf, Germany) emulsified in aluminum hydroxyde (AlumInject; Perbio, Erembodegem, Belgium) on days 1 and 8. Mice were subsequently exposed to allergens by daily inhalation of an aerosol of OVA 1%, for 30 minutes, generated by ultrasonic nebulizer (Devilbiss 2000), from day 21 to 27. Mice were subjected to inhalation of β-CD, HP-β-CD HP 1, 7.5, 50 mM and HP-β-CD 50 mM 30 minutes before OVA inhalation. Mice were sacrificed performed on day 28 as previously reported by Cataldo and al in Am. J. Pathol 2002; 161(2):491-498.
The left lung was crushed using a Mikro-Dismembrator (Braun Biotech International, Gmbh Melsungen, Germany). For proteins extraction, the crushed lung tissue was incubated overnight at 4° C. in a solution containing 2M urea, 1M NaCl and 50 mM Tris (pH 7.5) and subsequently centrifuged 15 minutes at 16.000×g. […]
Eotaxin and IL-13 levels were assessed using commercial ELISAs (R&D systems, Abingdon, UK). Eotaxin was measured by incubation in a wheel coated with a primary antibody specifically dedicated to the recognition of the protein and after rinsing, a second antibody against eotaxin, coupled with horse radish peroxydase was used to quantify the amounts of eotaxin in the solution
(In general: An ELISA detects its analyte on a solid surface through an enzyme-linked reagent.)

The subject of assay [3] is CXCL-1. Briefly: CXCL-1 ELISA in lung protein extracts, OVA-induced inflammation model. Conditions: aerosolized 15 mM, vs placebo-exposed mice, FIG. 12. The assay is classed as in vivo, mouse. The procedure:
In ovalbumin (OVA)-induced inflammation model, mice were immunized by intraperitoneal injection of OVA (10 μg) (Sigma Aldrich, Schnelldorf, Germany) and aluminium hydroxyde on days 0 and 7. From days 21 to 25, mice were exposed to inhalation of 1% OVA or PBS (phosphate buffer saline) for 30 minutes. Airway hyperresponsiveness was measured on day 26 before sacrifice. Mice were either exposed to aerosolized hydroxypropyl-beta-cyclodextrin (15 mM) or PBS for […] 6 hours before allergen exposure.
After sacrifice, thorax was opened and the right lungs were excised and snap frozen in liquid nitrogen for protein extraction. The left lung was insufflated at constant pressure with 4% paraformaldehyde and embedded in paraffin for further histological analysis. A peribronchial inflammation score was applied on each hematoxylin-eosin stained slide as previously reported (Cataldo et al Am J Pathol 2002). A value from 0 to 2 was adjudged to each bronchus. […] Six bronchi per mice were counted and statistical analysis was performed by using GraphPad Program. […] ELISA for CXCL-1 on lung protein extracts were assessed using antibodies from R&D Systems and the R&D Duoset® Elisa Development kit (R&D Systems, Minneapolis, Minn., USA).

Assay [4] has as its system CXCL-1. Briefly: CXCL-1 ELISA in lung protein extracts, LPS-induced inflammation model. The assay is classed as in vivo, mouse. Conditions: aerosolized 15 mM, vs placebo, FIG. 13. The procedure:
In lipopolysaccharide (LPS)-induced inflammation model, mice were exposed to 3 μg LPS diluted in 100 μl of PBS or PBS (phosphate buffer saline) only administered by direct tracheal instillations at day 1 and 5 of the protocol. Mice were daily exposed either to aerosolized hydroxypropyl-beta-cyclodextrin (15 mM) or PBS for 30 min from day 0 to 5 (6 hours after LPS or sham exposure at days 1 and 5). Mice were sacrificed at day 6.
After sacrifice, thorax was opened and the right lungs were excised and snap frozen in liquid nitrogen for protein extraction. The left lung was insufflated at constant pressure with 4% paraformaldehyde and embedded in paraffin for further histological analysis. A peribronchial inflammation score was applied on each hematoxylin-eosin stained slide as previously reported (Cataldo et al Am J Pathol 2002). A value from 0 to 2 was adjudged to each bronchus. Score of 0 corresponded to bronchi without inflammation; score 1 to occasional mononuclear cells observed around bronchi, and score 2 to 1 to 5 layer(s) of inflammatory cells around bronchi. Six bronchi per mice were counted and statistical analysis was performed by using GraphPad Program. […] ELISA for CXCL-1 on lung protein extracts were assessed using antibodies from R&D Systems and the R&D Duoset® Elisa Development kit (R&D Systems, Minneapolis, Minn., USA).

As for hydroxypropyl-βcyclodextrin [HP-β-CD], the peribronchial inflammation score result in the assay on OVA exposed mice [1] is recorded as “decreased inflammation score”. Besides, the “area under the methacholine dose-response curve (A.U.C)” value in the assay on OVA exposed mice [2] (50 mM) is “significant decrease”. In the assay on OVA exposed mice [2] (50 mM inhalation, FIG. 4), the “methacholine-induced Penh increase” value was “reduced”. Further, in the assay with Eotaxin, the “levels of eotaxin in lung protein extracts” value was “decrease”. Further, the “Levels of CXCL-1 in lung protein extracts” value in the assay with CXCL-1 [3] and in the assay on CXCL-1 [4] was “significantly decreased” in each case.

The values are drawn from US9034846B2, “Use of cyclodextrin for treatment and prevention of bronchial inflammatory diseases” (UNIVERSITE DE LIEGE, priority 2004, dated 2015).
